In this test the test system is SNU-16 cells (Gastric Carcinoma, FGFR2 amplification). Kind of test: Cancer cell line cell viability assay, SNU-16. In kind it is cell-based. The following applies: Homo sapiens, 72 hours, Cell Titer-Glo 2.0, read-out: Cancer Cell Viability Assays SNU-16 (IC50 nM). An excerpt: [table] To detect the change of intracellular ATP by Cell Titer-Glo® and to evaluate the inhibitory effect of the compounds on cancer cell lines by determining the in vitro IC50 value of the compounds. Cell Titer-Glo® 2.0 Luminescent cell viability assay reagent was purchased from Promega (Madison, Wis.). RT112/84, SNU-16, and KG-1 cell lines were purchased from American Type Culture Collection (Manassas, Va.). UM-UC-14 cell line was purchased from Sigma (St. Louis, Mo.). RT112/84, UM-UC-14, SNU-16, and KG-1 cells were cultured in RPMI1640 media supplemented with 10% fetal bovine serum. Cultures were maintained at 37° C. in a humidified atmosphere of 5% CO2 and 95% air. Cell Viability Assay Procedure: Cells were plated in 96-well clear bottom/white plates (Corning #3903) at 10,000 cells/well in 100 μl of media, incubated overnight. The next day, test compound DMSO stock solutions were made at 10 mM and 2 μM final concentration. Compounds were then added to cells in a 9-dose, […] dilution series starting at 30 μM with an HP 300e Digital Dispenser (each dose was applied in triplicate). DMSO was backfilled to each well up to 301 nL total volume of test compound+DMSO, and a total of 301 nL DMSO was added to a control/no test compound well in triplicate. The cells in cell culture plates were incubated with the compounds at 37° C. and 5% CO2 for 72 hours. Then 50 μl of Cell Titer Glo 2.0 reagent was added to each well of the cell culture plates. The contents were covered from light and mixed on an orbital shaker at room temperature for 10 min. Luminescence was recorded by a Synergy H1 Microplate Reader (Biotek, Winooski, Vt.). Cells were assessed as a percentage of DMSO only treated control cells. Curves were plotted and IC50 values were calculated using the GraphPad Prism 8 program based on a sigmoidal dose-response equation (4 parameter).
(Cellular ATP, detected with luciferase, serves as a proxy for viable cell number.)

One may read the IC50 as the point on the concentration scale where inhibition reaches its midpoint. On to `C=CC(=O)Nc1ccc2c(ccn2-c2nc(Nc3ccc(N=S(C)(C)=O)cc3)ncc2Cl)c1` [Example 66, N-[1-[5-chloro-2-[4-[[dimethyl(oxo)-λ^6-sulfanylidene]amino]anilino]-pyrimidin-4-yl]indol-5-yl]prop-2-enamide], for which the half-inhibitory concentration (IC50) worked out at 65 nM.

Consider `C=CC(=O)Nc1ccc2c(ccn2-c2nc(Nc3ccc(S(C)(=N)=O)cc3)ncc2Cl)c1` (centres unmarked) [Example 70, N-[1-[5-Chloro-2-[4-(methylsulfonimidoyl)anilino]-pyrimidin-4-yl]indol-5-yl]prop-2-enamide], for which the concentration for half-maximal inhibition (IC50) stood at 12 nM.
